Where two headings read alike, the source gives them in different places.
What was measured:
[1] = test system: HT1080; assay: Antiproliferation assay (Alamar Blue), HT1080; type: cell-based, Human; details: read-out: EC50 of YL001
Description: (§1) Cytotoxic activities of the compounds of interest were investigated with human cancer cell lines using the Alamar Blue assay. Cells (5 × 10^3 cells/well) were seeded into 96-well plates (Corning, 3603). Various sample concentrations (compounds of interest) were added to each well in duplicate, and incubated at 37°C with 5% CO2 for two days such that cells were in the exponential growth phase at the time of drug addition. Ten microliters of the Alamar Blue Solution (Invitrogen, Alamar Blue) were added to each well and incubated at 37°C for up to 2 hours in a humidified, 5% CO2 atmosphere. After incubation, florescence was measured using a microplate reader (Tecan) at an excitation wavelength of 540 nm and emission of 590 nm. Each inhibitory concentration was measured in triplicate, and averaged data points ± SD are shown. Statistical analysis was carried out with GraphPad Prism 5 and the fifty-percent effective concentration is expressed as EC50.

[2] = test system: DU145; assay: Antiproliferation assay (Alamar Blue), DU145; type: cell-based; details: Homo sapiens, DU-145; DU145, prostate cancer; read-out: EC50 of YL001
Description: as §1

[3] = Nucleophilic addition assay; details: incubated with cysteine and lysine for 24 hours at 37°C
Description: 0.5 mmol YL001 was solved in a solution of THF/H2O (v:v = 1:1) and stirred with nucleophiles (0.5 mmol L-cysteine or L-lysine) at 37°C for 24 hours. Products were then validated by HRMS.

[4] = molecular target: Eg5 (Homo sapiens, UniProt P52732); assay: Inhibition of Eg5 ATPase activity; type: biochemical; details: read-out: Enzyme EC50
Chain of Eg5 (P52732 whole entry): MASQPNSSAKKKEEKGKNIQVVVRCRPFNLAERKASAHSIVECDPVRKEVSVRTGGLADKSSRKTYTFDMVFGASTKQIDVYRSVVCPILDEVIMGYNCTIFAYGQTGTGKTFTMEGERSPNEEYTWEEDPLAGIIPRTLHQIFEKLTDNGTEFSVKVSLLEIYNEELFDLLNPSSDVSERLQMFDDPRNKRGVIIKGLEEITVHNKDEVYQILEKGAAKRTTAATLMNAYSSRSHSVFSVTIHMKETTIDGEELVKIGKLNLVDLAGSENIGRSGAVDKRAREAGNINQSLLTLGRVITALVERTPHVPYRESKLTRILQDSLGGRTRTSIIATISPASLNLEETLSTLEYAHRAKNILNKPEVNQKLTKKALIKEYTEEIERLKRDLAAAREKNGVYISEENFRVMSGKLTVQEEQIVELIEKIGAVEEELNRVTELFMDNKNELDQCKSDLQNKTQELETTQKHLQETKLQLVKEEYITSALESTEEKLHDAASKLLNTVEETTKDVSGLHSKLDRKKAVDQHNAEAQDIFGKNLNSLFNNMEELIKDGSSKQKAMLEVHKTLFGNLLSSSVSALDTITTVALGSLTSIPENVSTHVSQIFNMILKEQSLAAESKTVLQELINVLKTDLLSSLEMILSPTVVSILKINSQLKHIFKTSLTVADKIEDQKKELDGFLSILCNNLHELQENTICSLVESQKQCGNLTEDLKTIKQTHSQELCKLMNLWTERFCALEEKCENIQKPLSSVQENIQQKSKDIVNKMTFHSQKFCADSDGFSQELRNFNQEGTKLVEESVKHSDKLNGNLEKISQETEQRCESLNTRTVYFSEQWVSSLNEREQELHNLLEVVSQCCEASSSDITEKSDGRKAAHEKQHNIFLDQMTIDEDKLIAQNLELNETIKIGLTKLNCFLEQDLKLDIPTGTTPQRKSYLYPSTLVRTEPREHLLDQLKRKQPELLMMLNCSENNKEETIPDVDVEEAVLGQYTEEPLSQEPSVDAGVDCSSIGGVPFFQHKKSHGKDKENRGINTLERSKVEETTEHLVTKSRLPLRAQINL
Description: All experiments were performed as previously described. Data were analyzed using GraphPad Prism 5 and Microsoft Excel to obtain EC50 values. […] Each inhibitory concentration was measured in triplicate, and averaged data points ± SD are shown.

[5] = test system: 4T1/6TG; assay: Antiproliferation assay (Alamar Blue), 4T1/6TG; type: cell-based; details: 6TG resistant mouse breast cancer, read-out: EC50 of YL001
[6] = test system: HCT116; assay: Antiproliferation assay (Alamar Blue), HCT116; type: cell-based; details: Homo sapiens, HCT-116; HCT116, colon cancer; read-out: EC50 of YL001
Description: as §1

[7] = test system: K562; assay: Antiproliferation assay (Alamar Blue), K562; type: cell-based; details: Homo sapiens; K562, leukemia; read-out: EC50 of YL001
Description: as §1

[8] = test system: A2780/taxol; assay: Antiproliferation assay (Alamar Blue), A2780/taxol; type: cell-based; details: Homo sapiens, taxol resistant ovarian cancer, read-out: EC50 of YL001
Description: as §1

[9] = molecular target: T1, Eg5 motor domain (Homo sapiens, UniProt P52732); assay: SPR assay (Biacore T200); type: binding; details: SPR Biacore T200, 25°C
T1 sequence (P52732 18-359 limits assumed): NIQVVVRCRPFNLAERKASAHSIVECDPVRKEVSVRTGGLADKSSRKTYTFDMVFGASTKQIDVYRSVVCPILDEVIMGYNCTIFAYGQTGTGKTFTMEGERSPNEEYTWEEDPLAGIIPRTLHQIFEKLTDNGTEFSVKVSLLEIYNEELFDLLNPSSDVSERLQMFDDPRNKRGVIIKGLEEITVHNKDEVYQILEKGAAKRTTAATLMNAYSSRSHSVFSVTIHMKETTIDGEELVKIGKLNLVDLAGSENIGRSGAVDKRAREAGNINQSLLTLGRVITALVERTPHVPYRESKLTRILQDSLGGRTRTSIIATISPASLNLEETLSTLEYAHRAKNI
Description: Interactions of the Eg5 motor domain and compounds of interest were analyzed using the Biacore T200 system (GE Healthcare, Uppsala, Sweden) at 25°C. Eg5 motor protein obtained as previously described (51) was immobilized on a sensor chip (CM5) using an amine coupling kit (GE Healthcare, Buckinghamshire, UK). […] For binding studies, analytes were applied at corresponding concentrations in running buffer at a flow rate of 30 μL/minute with a contact time of 60 seconds and a dissociation time of 60 seconds. Chip platforms were washed with running buffer and 50% DMSO. Data were analyzed with Biacore evaluation software (T200 Version 1.0) by curve fitting using a steady state 1:1 binding model and a kinetic model.

[10] = test system: CNE-2Z; assay: Antiproliferation assay (Alamar Blue), CNE-2Z; type: cell-based; details: Homo sapiens, CNE2Z, nasopharyngeal cancer, read-out: EC50 of YL001
Description: as §1

[11] = test system: AGS; assay: Antiproliferation assay (Alamar Blue), AGS; type: cell-based; details: Homo sapiens, stomach cancer, read-out: EC50 of YL001
Description: as §1

[12] = test system: 786-O; assay: Antiproliferation assay (Alamar Blue), 786-O; type: cell-based; details: Homo sapiens, 786-0, renal cancer, read-out: EC50 of YL001
Description: as §1

Cc1ccc(-n2nnnc2/C(=C/N(C)C)C(=O)c2cccc(C(F)(F)F)c2)cc1 [YL001, (Z)-3-(dimethylamino)-2-(1-(p-tolyl)-1H-tetrazol-5-yl)-1-(3-(trifluoromethyl)phenyl)prop-2-en-1-one] showed an EC50 ([1]; HT1080, fibrosarcoma) of 76.2 ± 0.77 µM, an EC50 ([1]; Homo sapiens, HT-1080, HT1080, fibrosarcoma) of over 70 µM and an EC50 [2] of 26.5 ± 0.27 µM. For the same compound, the “reaction with nucleophiles (new products by HRMS)” value [3] was “no new products were detected”, the EC50 [4] was 1.18 µM and the EC50 [5] was 20 ± 0.5 µM. For the same compound, the EC50 [6] was 9.04 ± 2.19 µM, the EC50 [7] was 9.76 ± 0.52 µM and the EC50 [8] was 20.1 ± 0.68 µM. For the same compound, the Kd [9] was 0.133 µM, the EC50 [10] was 5.94 ± 0.02 µM and the EC50 [11] was 20.2 ± 0.01 µM. For the same compound, the EC50 [12] was 14.7 ± 0.62 µM.

From paper PMC5522084, “Eg5 inhibitor YL001 induces mitotic arrest and inhibits tumor proliferation” (Oncotarget, 2017)
